Source: the supplement of paper PMC10307832

Tests used:
Test in all cases: relative viability (nuclei count vs DMSO), 5 days (fraction); higher = more cells survive
XMD8-85 + Luminespib = compound: CN1CCN(CC1)C2=CC(=C(C=C2)NC3=NC=C4C(=N3)N(C5=CC=CC=C5C(=O)N4C)C)OC [XMD8-85] + CCNC(=O)c1noc(-c2cc(C(C)C)c(O)cc2O)c1-c1ccc(CN2CCOCC2)cc1 [Luminespib] (partner 0.01 µM)
In short: (§1)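 Each reported value is a median over duplicate plates. It expresses relative viability: treated-well nuclei count divided by vehicle-well nuclei count. Lung cancer cell lines in 1536-well plates were dosed by pin tool a day after seeding, alone with one drug or with a fixed anchor-drug dose plus five library-drug doses (not always all listed) in √10 steps, and nuclei were counted after 5 days.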

4EGI-1 + OSI-027 = compound: O=C(O)C(Cc1ccccc1[N+](=O)[O-])=NNc1nc(-c2ccc(Cl)c(Cl)c2)cs1 (mixture of isomers) [4EGI-1] + COc1cccc2cc(-c3nc([C@H]4CC[C@H](C(=O)O)CC4)n4ncnc(N)c34)[nH]c12 [OSI-027] (partner 0.5 µM)
In short: as §1

4EGI-1 + AZD7762 = compound: O=C(O)C(Cc1ccccc1[N+](=O)[O-])=NNc1nc(-c2ccc(Cl)c(Cl)c2)cs1 (mixture of isomers) [4EGI-1] + NC(=O)Nc1cc(-c2cccc(F)c2)sc1C(=O)N[C@H]1CCCNC1 [AZD7762] (partner 0.2 µM)
In short: as §1

XMD8-85 + Pictilisib = compound: CN1CCN(CC1)C2=CC(=C(C=C2)NC3=NC=C4C(=N3)N(C5=CC=CC=C5C(=O)N4C)C)OC [XMD8-85] + CS(=O)(=O)N1CCN(Cc2cc3nc(-c4cccc5[nH]ncc45)nc(N4CCOCC4)c3s2)CC1 [Pictilisib] (partner 1 µM)
In short: as §1

Cell Line	relative viability (XMD8-85 + Luminespib; first compound 0.08 µM)	relative viability (XMD8-85 + Luminespib; first compound 0.253 µM)	relative viability (XMD8-85 + Luminespib; first compound 0.8 µM)	relative viability (XMD8-85 + Luminespib; first compound 2.53 µM)	relative viability (XMD8-85 + Luminespib; first compound 8 µM)	relative viability (4EGI-1 + OSI-027; first compound 0.5 µM)	relative viability (4EGI-1 + OSI-027; first compound 1.581 µM)	relative viability (4EGI-1 + OSI-027; first compound 5 µM)	relative viability (4EGI-1 + OSI-027; first compound 15.81 µM)	relative viability (4EGI-1 + OSI-027; first compound 50 µM)	relative viability (4EGI-1 + AZD7762; first compound 0.5 µM)	relative viability (4EGI-1 + AZD7762; first compound 5 µM)	relative viability (4EGI-1 + AZD7762; first compound 15.81 µM)	relative viability (4EGI-1 + AZD7762; first compound 50 µM)	relative viability (XMD8-85 + Pictilisib; first compound 0.08 µM)	relative viability (XMD8-85 + Pictilisib; first compound 0.253 µM)	relative viability (XMD8-85 + Pictilisib; first compound 0.8 µM)	relative viability (XMD8-85 + Pictilisib; first compound 2.53 µM)	relative viability (XMD8-85 + Pictilisib; first compound 8 µM)	relative viability (4EGI-1 + AZD7762; first compound 1.581 µM)
A-427	1.06	1.08	1.25	1.1	0.669	0.604	0.386	0.534	0.44	0.152	0.819	0.715	0.513	0.231	0.683	0.808	0.813	0.737	0.527	
LCLC-97TM1	0.715	0.87	0.833	0.813	0.85	0.464	0.258	0.527	0.482	0.478	0.242	0.362	0.41	0.0881	0.181	0.22	0.248	0.173	0.177	
LK-2		0.184	0.192	0.155	0.162	0.196		0.201	0.182	0.178	0.543	0.451	0.344	0.177	0.531	0.439	0.574	0.361	0.458	
LU99A	0.228	0.252	0.206	0.309	0.193	0.306	0.275	0.269	0.274	0.288	0.546	0.323	0.237	0.141	0.32	0.302	0.339	0.367	0.33	0.235
NCI-H1993	0.79	0.837	0.929	0.928	0.746	0.495	0.528	0.627	0.611	0.577	0.904	0.937	0.504	0.356	0.859	0.795	0.822	0.701	0.814	0.689
NCI-H441	0.299	0.333	0.4	0.356	0.231	0.812	0.488	0.653	0.478	0.333	1.38	1.28	1.08	0.772	0.405	0.389	0.608	0.438	0.389	1.13
NCI-H1666	1	1.03	0.986	1.04	0.877	0.841	0.805	0.948	0.606	0.433	0.81	0.757	0.497	0.341	0.522	0.375	0.391	0.312	0.44	0.68
NCI-H322M	0.609	0.823	0.797	0.927	0.68	0.63		0.546	0.532	0.223	0.604	0.563	0.417	0.36	0.551	0.501	0.502	0.527	0.409	
NCI-H838	0.234	0.225	0.29	0.389	0.189	0.419		0.403	0.362	0.218	1.05	0.904	0.647	0.617	0.423	0.455	0.503	0.429	0.317	
ChaGo-K-1	0.603	0.577	0.71	0.585	0.501	0.595	0.526	0.558	0.483	0.381	0.875	0.876	0.897	0.465	0.808	0.692	0.689	0.697	0.303	0.87
